Counter-ions that a name gives are not always drawn.

10 compounds from patent US7579368B2, “Cis-imidazolines” (Hoffman-La Roche Inc., priority 2005, dated 2009) can be followed below.

interaction between p53 and MDM2 proteins (recombinant GST-tagged MDM2 and p53 peptide), sequence (Q00987 whole entry): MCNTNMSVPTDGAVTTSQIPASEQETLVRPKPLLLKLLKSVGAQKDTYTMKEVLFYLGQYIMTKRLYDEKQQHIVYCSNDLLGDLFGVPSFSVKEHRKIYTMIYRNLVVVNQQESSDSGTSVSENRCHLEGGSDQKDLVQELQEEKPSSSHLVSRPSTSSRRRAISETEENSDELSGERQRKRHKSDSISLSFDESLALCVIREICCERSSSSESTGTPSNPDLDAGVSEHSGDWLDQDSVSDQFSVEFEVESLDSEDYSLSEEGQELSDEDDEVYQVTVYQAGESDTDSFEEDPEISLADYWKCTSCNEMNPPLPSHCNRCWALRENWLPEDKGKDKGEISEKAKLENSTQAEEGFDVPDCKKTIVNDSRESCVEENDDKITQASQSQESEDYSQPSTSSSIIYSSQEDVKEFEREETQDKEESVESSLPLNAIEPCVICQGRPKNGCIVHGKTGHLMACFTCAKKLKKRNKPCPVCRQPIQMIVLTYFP

This assay deals with interaction between p53 and MDM2 proteins (recombinant GST-tagged MDM2 and p53 peptide) (Homo sapiens, UniProt Q00987). Put plainly: HTRF assay of inhibition of the p53-MDM2 interaction (GST-MDM2 / biotinylated p53 peptide). The following applies: 90 nM biotinylated p53 peptide, 160 ng/ml GST-MDM2, 37° C. 1 h. It counts as binding. The protocol:
The ability of the compounds to inhibit the interaction between p53 and MDM2 proteins was measured by an HTRF (homogeneous time-resolved fluorescence) assay in which recombinant GST-tagged MDM2 binds to a peptide that resembles the MDM2-interacting region of p53 (Lane et al.). Binding of GST-MDM2 protein and p53-peptide (biotinylated on its N-terminal end) is registered by the FRET (fluorescence resonance energy transfer) between Europium (Eu)-labeled anti-GST antibody and streptavidin-conjugated Allophycocyanin (APC).
Test is performed in black flat-bottom 384-well plates (Costar) in a total volume of 40 uL containing: 90 nM biotinylated peptide, 160 ng/ml GST-MDM2, 20 nM streptavidin-APC (PerkinElmerWallac), 2 nM Eu-labeled anti-GST-antibody (PerkinElmerWallac), 0.2% bovine serum albumin (BSA), 1 mM dithiothreitol (DTT) and 20 mM […] (TBS) buffer as follows: Add 10 uL of GST-MDM2 (640 ng/ml working solution) in reaction buffer to each well. Add 10 uL diluted compounds (1:5 dilution in reaction buffer) to each well, mix by shaking. Add 20 uL biotinylated p53 peptide (180 nM working solution) in reaction buffer to each well and mix on shaker. Incubate at 37° C. for 1 h. Add 20 uL streptavidin-APC and Eu-anti-GST antibody mixture (6 nM Eu-anti-GST and 60 nM streptavidin-APC working solution) in TBS buffer with 0.2% BSA, shake at room temperature for 30 minutes and read using a TRF-capable plate reader at 665 and 615 nm (Victor 5, Perkin ElmerWallac). If not specified, the reagents were purchased from Sigma Chemical Co.
In general terms: Time-resolved FRET reads energy transfer from a long-lived donor to a nearby acceptor.
What is called IC50 is the midpoint of a concentration-inhibition curve. With `CCOc1cc(C#N)ccc1C1=N[C@@H](c2ccc(Cl)cc2)[C@@H](c2ccc(Cl)cc2)N1C(=O)N1CCN(CCO)CC1` [Example 63, 4-{(4S,5R)-4,5-Bis-(4-chloro-phenyl)-1-[4-(2-hydroxy-ethyl)-piperazine-1-carbonyl]-4,5-dihydro-1H-imidazol-2-yl}-3-ethoxy-benzonitrile], the IC50 is 9 nM.
As for `CCOc1cc(N(C(=O)N2CCNC(=O)C2)S(C)(=O)=O)ccc1C1=N[C@@H](c2ccc(Cl)cc2)[C@@H](c2ccc(Cl)cc2)N1C(=O)N1CCNC(=O)C1` [Example 275, N-{4-[(4S,5R)-4,5-Bis-(4-chloro-phenyl)-1-(3-oxo-piperazine-1-carbonyl)-4,5-dihydro-1H-imidazol-2-yl]-3-ethoxy-phenyl}-N-(3-oxo-piperazine-1-carbonyl)-methanesulfonamide], the figure is 310 nM.
With `CCOc1ccc(S(=O)(=O)N(CCOC)CCOC)cc1C1=NC(c2ccc(Cl)cc2)C(c2ccc(Cl)cc2)N1C(=O)N1CCNC(=O)C1` (stereo not shown) [Example 105, 3-[4,5-Bis-(4-chloro-phenyl)-1-(3-oxo-piperazine-1-carbonyl)-4,5-dihydro-1H-imidazol-2-yl]-4-ethoxy-N,N-bis-(2-methoxy-ethyl)-benzenesulfonamide], the IC50 came to 57 nM.
With `CCOc1cc(C#CC(C)(C)C)ccc1C1=N[C@@H](c2ccc(Cl)cc2)[C@@H](c2ccc(Cl)cc2)N1C(=O)N1CCN(CC(=O)N2CCOCC2)CC1` [Example 405, 2-(4-{(4S,5R)-4,5-Bis-(4-chloro-phenyl)-2-[4-(3,3-dimethyl-but-1-ynyl)-2-ethoxy-phenyl]-4,5-dihydro-imidazole-1-carbonyl}-piperazin-1-yl)-1-morpholin-4-yl-ethanone hydrochloride] the figure was 544 nM.
With `CCOc1cc(Cl)c(S(N)(=O)=O)cc1C1=N[C@@H](c2ccc(Cl)cc2)[C@@H](c2ccc(Cl)cc2)N1C(=O)N1CCN(CC(=O)N2CCOCC2)CC1` [Example 34, 5-{(4S,5R)-4,5-Bis-(4-chloro-phenyl)-1-[4-(2-morpholin-4-yl-2-oxo-ethyl)-piperazine-1-carbonyl]-4,5-dihydro-1H-imidazol-2-yl}-2-chloro-4-ethoxy-benzenesulfonamide], the IC50 worked out at 9 nM.
With `CCOc1ccc(S(=O)(=O)NC(C)COC)cc1C1=NC(c2ccc(Cl)cc2)C(c2ccc(Cl)cc2)N1C(=O)N1CCN(CC(=O)NC)CC1` (stereo not shown) [Example 130, 2-(4-{4,5-Bis-(4-chloro-phenyl)-2-[2-ethoxy-5-(2-methoxy-1-methyl-ethylsulfamoyl)-phenyl]-4,5-dihydro-imidazole-1-carbonyl}-piperazin-1-yl)-N-methyl-acetamide], the IC50 came to 57 nM.
On to `CCOc1cc(Cl)c(S(=O)(=O)N2CCCC2)cc1C1=N[C@@H](c2ccc(Cl)cc2)[C@@H](c2ccc(Cl)cc2)N1C(=O)N1CCN(CCS(C)(=O)=O)CC1` [Example 174, [(4S,5R)-2-[4-Chloro-2-ethoxy-5-(pyrrolidine-1-sulfonyl)-phenyl]-4,5-bis-(4-chloro-phenyl)-4,5-dihydro-imidazol-1-yl]-[4-(2-methanesulfonyl-ethyl)-piperazin-1-yl]-methanone hydrochloride], for which the IC50 was 5 nM.
Consider `CCOc1cc(NC(=O)C(C)(C)C)ccc1C1=N[C@@H](c2ccc(Cl)cc2)[C@@H](c2ccc(Cl)cc2)N1C(=O)N1CCNC(=O)C1` [Example 277, N-{4-[(4S,5R)-4,5-Bis-(4-chloro-phenyl)-1-(3-oxo-piperazine-1-carbonyl)-4,5-dihydro-1H-imidazol-2-yl]-3-ethoxy-phenyl}-2,2-dimethyl-propionamide], for which the IC50 came to 160 nM.
As to `CCOc1cc(Cl)c(C#N)cc1C1=N[C@@H](c2ccc(Cl)cc2)[C@@H](c2ccc(Cl)cc2)N1C(=O)N1CCNC(=O)C1` [Example 234, 5-[(4S,5R)-4,5-Bis-(4-chloro-phenyl)-1-(3-oxo-piperazine-1-carbonyl)-4,5-dihydro-1H-imidazol-2-yl]-2-chloro-4-ethoxy-benzonitrile], the IC50 was determined as 150 nM.
With `CCOc1cc(Cl)c(S(=O)(=O)N2CCCCC2)cc1C1=N[C@@H](c2ccc(Cl)cc2)[C@@H](c2ccc(Cl)cc2)N1C(=O)N1CCN(CC(=O)N2CCOCC2)CC1` [Example 175, 2-{4-[(4S,5R)-2-[4-Chloro-2-ethoxy-5-(piperidine-1-sulfonyl)-phenyl]-4,5-bis-(4-chloro-phenyl)-4,5-dihydro-imidazole-1-carbonyl]-piperazin-1-yl}-1-morpholin-4-yl-ethanone hydrochloride] the figure was 5 nM.
